Data reported in paper PMC11618052, “Design, synthesis, and antiproliferative activity of new 1,2,3-triazole/quinazoline-4-one hybrids as dual EGFR/BRAF^V600E inhibitors” (RSC Advances, 2024).

Experiments:
[1] = system: breast cancer (MCF-7); assay: Antiproliferative MTT assay, MCF-7; assay type: cell-based; details: Homo sapiens, MCF7, MCF-7 breast cancer cells, read-out: Antiproliferative activity IC50 ± SEM, MCF-7
Method: (§1) The median inhibitory concentration (IC50) and GI50 (mean IC50) for the four cancer cell lines were calculated. Appendix A ^† contains more details. […]

[2] = system: colon cancer (HT-29); assay: Antiproliferative MTT assay, HT-29; assay type: cell-based; details: Homo sapiens, HT-29 colon cancer cells, read-out: Antiproliferative activity IC50 ± SEM, HT-29
Method: as §1

[3] = system: lung cancer (A-549); assay: Antiproliferative MTT assay, A-549; assay type: cell-based; details: Homo sapiens, A549, A-549 lung cancer cells, read-out: Antiproliferative activity IC50 ± SEM, A-549
Method: as §1

[4] = system: pancreatic cancer (Panc-1); assay: Antiproliferative MTT assay, Panc-1; assay type: cell-based; details: Homo sapiens, Panc-1 pancreatic cancer cells, read-out: Antiproliferative activity IC50 ± SEM, Panc-1
Method: as §1

[5] = Cell viability MTT assay on MCF-10A normal cells; assay type: cell-based; details: human, MCF-10A normal mammary gland epithelial cells, MCF-10A cells, four days of incubation
Method: The viability of new compounds 8a–t was evaluated using the MCF-10A normal human mammary gland epithelial cell line. The cell viability of compounds 8a–t was examined using the MTT assay[36] after four days of incubation with MCF-10A cells. For more details, see Appendix A (ESI file). ^† […]
We evaluated the viability of new compounds 8a–t using the MCF-10A normal human mammary gland epithelial cell line. The cell viability of compounds 8a–t was examined using the MTT assay[36] after four days of incubation with MCF-10A cells.
4.2. Biological evaluation
4.2.1. Cytotoxic activity using MTT Assay and evaluation of IC 50
MTT assay was carried out to study the effect of compounds on mammary epithelial cells (MCF-10A). The medium in which cells were propagated contained Dulbecco's modified Eagle's medium (DMEM)/ Ham's F-12 medium (1:1) supplemented with epidermal growth factor (20 ng/mL), hydrocortisone (500 ng/mL), insulin (10 μg/mL), 2 mM glutamine and 10% foetal calf serum.
After every 2-3 days, the cells were passaged using trypsin ethylenediamine tetra acetic acid (EDTA). The cells were seeded at a density of 10^4 cells mL-1 in flat-bottomed culture plates containing 96 wells each. After 24 h, medium was removed from the plates and the compounds in (in 0.1% DMSO) were added (in 200 μL medium to yield a final concentration of 0.1% v/v) to the wells of plates. A single compound was designated with four wells followed by incubation of plates for 96h at 37°C. After incubation, medium was removed completely from the plates followed by addition of MTT (0.4 mg/mL in medium) to each well and subsequent incubation of plates for 3h. MTT (along with the medium) was removed and DMSO (150μL) was added to each well of the culture plates, followed by vortexing and subsequent measurement of absorbance (at 540 nm) using microplate reader. The data are shown as percentage inhibition of proliferation in comparison with controls containing 0.1% DMSO. […]

[6] = system: four human cancer cell lines (A-549, MCF-7, Panc-1, HT-29); assay: Antiproliferative MTT assay, mean over the four cancer cell lines; assay type: cell-based; details: for GI50: mean IC50 over A-549, MCF-7, Panc-1, HT-29
Method: as §1

[7] = molecular target: T1, EGFR (Homo sapiens, UniProt P00533); assay: EGFR-TK inhibitory assay; assay type: biochemical; details: read-out: EGFR inhibition IC50 ± SEM
T1 construct: 645–1186; His6 (N); made in house; host or cells: Sf-9 insect cells (baculovirus; pBlueBacHis2B / pFASTBacHTc)
T1 sequence (P00533 669-1210): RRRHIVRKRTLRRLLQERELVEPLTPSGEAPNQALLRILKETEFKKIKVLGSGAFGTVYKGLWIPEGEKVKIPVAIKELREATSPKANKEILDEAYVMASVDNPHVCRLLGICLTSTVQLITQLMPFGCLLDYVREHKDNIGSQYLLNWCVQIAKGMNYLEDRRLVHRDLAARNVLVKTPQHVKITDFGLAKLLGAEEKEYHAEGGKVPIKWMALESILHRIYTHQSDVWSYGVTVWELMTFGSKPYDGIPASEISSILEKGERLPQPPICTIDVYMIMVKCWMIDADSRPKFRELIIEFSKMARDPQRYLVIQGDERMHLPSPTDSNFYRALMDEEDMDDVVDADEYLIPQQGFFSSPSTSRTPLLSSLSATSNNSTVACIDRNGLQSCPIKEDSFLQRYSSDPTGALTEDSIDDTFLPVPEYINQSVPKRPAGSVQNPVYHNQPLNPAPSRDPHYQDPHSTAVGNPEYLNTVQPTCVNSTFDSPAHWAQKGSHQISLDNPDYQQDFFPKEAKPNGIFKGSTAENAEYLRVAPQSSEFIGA
Method: Sf-9 cells were infected for 72h for protein expression. […]
centrifugation for 20 min.
Histidine-linked proteins were first eluted with 250 and then […]
using wash buffer. Europium-tagged antiphosphotyrosine antibody (75 µL, 400 ng) was added to each well followed by incubation of 1h and then washing of the plates using buffer. The enhancement solution was added to each well and the signal was recorded at excitation and […]
The autophosphorylation percentage inhibition by compounds was calculated using the following equation: […]

[8] = molecular target: BRAF^V600E; assay: BRAF^V600E kinase inhibitory assay
Chain of BRAF^V600E (P28028 whole entry V585E): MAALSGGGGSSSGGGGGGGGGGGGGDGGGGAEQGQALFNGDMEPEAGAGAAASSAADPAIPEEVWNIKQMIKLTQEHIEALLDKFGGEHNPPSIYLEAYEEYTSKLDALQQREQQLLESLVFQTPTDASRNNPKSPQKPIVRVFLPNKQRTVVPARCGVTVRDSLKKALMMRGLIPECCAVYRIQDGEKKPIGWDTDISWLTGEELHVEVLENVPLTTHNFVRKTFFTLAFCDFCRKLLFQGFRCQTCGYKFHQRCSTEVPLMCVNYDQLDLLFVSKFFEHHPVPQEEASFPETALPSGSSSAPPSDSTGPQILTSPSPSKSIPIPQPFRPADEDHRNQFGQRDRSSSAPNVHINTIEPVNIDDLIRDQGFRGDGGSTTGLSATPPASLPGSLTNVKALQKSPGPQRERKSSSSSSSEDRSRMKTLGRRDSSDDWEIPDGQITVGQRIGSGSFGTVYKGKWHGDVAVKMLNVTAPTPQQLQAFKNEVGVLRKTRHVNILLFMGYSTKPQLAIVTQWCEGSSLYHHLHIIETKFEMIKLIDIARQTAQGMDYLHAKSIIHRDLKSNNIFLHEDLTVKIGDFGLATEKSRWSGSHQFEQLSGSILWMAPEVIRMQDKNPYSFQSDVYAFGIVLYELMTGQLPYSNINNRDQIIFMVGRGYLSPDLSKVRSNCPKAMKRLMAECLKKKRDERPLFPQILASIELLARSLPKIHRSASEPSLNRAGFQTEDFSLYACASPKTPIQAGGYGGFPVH
Method: V600E mutant BRAF kinase assay was performed to investigate the activity of tested compounds against BRAF. Mouse full-length GST-tagged BRAFV600E (7.5 ng, Invitrogen, PV3849) was pre-incubated with drug (1 µL) and assay dilution buffer (4 µL) for 60 min at 25 °C. In assay dilution buffer, a solution (5 µL) containing MgCl2 (30 mM), ATP (200 µM), recombinant human full length (200 ng) and N-terminal His-tagged MEK1 (Invitrogen) was added to start the assay, subsequent to incubation for 25 min at 25 °C. The assay was stopped using 5X protein denaturing buffer (LDS) solution (5 µL). To further denature the protein, heat (70° C) was applied for 5 min.
10 µL of each reaction was loaded into the precast plates and electrophoresis was allowed to proceed. After completion of electrophoresis, the front part of the precast gel plate (holding hot ATP) was cut and afterwards cast-off. The dried gel was developed using a phosphor screen. A

SMILES: C#Cc1cccc(Nc2ncnc3cc(OCCOC)c(OCCOC)cc23)c1 [Erlotinib, reference compound]
- IC50 [1]: 40 ± 3 nM
- IC50 [2]: 30 ± 3 nM
- IC50 [3]: 30 ± 3 nM
- IC50 [4]: 30 ± 3 nM

SMILES: C=CCn1c(SCc2cn(-c3ccc(OC)cc3)nn2)nc2ccccc2c1=O [Compound 8s, 2-(((1-(4-Methoxyphenyl)-1H-1,2,3-triazol-4-yl)methyl)thio)-3-allyl quinazolin-4(3H)-one]
- viability at 4 days, 50 µM [5]: 91%
- IC50 [1]: 53 ± 4 nM
- GI50 ([6]; Homo sapiens): 57 nM
- IC50 [2]: 59 ± 5 nM
- IC50 [3]: 57 ± 5 nM
- IC50 [4]: 59 ± 5 nM

SMILES: CCn1c(SCc2cn(-c3ccc(Cl)cc3)nn2)nc2ccccc2c1=O [Compound 8n, 2-(((1-(4-Chlorophenyl)-1H-1,2,3-triazol-4-yl)methyl)thio)-3-ethyl quinazolin-4(3H)-one]
- viability at 4 days, 50 µM [5]: 92%
- IC50 [1]: 71 ± 6 nM
- GI50 ([6]; Homo sapiens): 76 nM
- IC50 [2]: 79 ± 6 nM
- IC50 [3]: 75 ± 6 nM
- IC50 [4]: 78 ± 6 nM

SMILES: Cc1ccc(-n2cc(CSc3nc4ccccc4c(=O)n3-c3cccc(C)c3)nn2)cc1 [Compound 8l, 2-(((1-(p-Tolyl)-1H-1,2,3-triazol-4-yl)methyl)thio)-3-(m-tolyl)quinazolin-4(3H)-one]
- viability at 4 days, 50 µM [5]: 87%
- IC50 [7]: 83 ± 5 nM
- IC50 [1]: 29 ± 2 nM
- IC50 [8]: 64 ± 5 nM
- GI50 ([6]; Homo sapiens): 33 nM
- IC50 [2]: 35 ± 2 nM
- IC50 [3]: 33 ± 2 nM
- IC50 [4]: 36 ± 2 nM

SMILES: O=c1c2ccccc2nc(SCc2cn(-c3ccccc3)nn2)n1-c1ccccc1 [Compound 8a, 2-(((1-Phenyl-1H-1,2,3-triazol-4-yl)methyl)thio)-3-phenyl quinazolin-4(3H)-one]
- viability at 4 days, 50 µM [5]: 89%
- IC50 [1]: 56 ± 5 nM
- GI50 ([6]; Homo sapiens): 61 nM
- IC50 [2]: 64 ± 5 nM
- IC50 [3]: 61 ± 5 nM
- IC50 [4]: 64 ± 5 nM

SMILES: Cc1ccc(-n2c(SCc3cn(-c4ccccc4)nn3)nc3ccccc3c2=O)cc1 [Compound 8e, 2-(((1-Phenyl-1H-1,2,3-triazol-4-yl)methyl)thio)-3-(p-tolyl)quinazolin-4(3H)-one]
- viability at 4 days, 50 µM [5]: 90%
- IC50 [1]: 85 ± 8 nM
- Fold less potent than compound 8g (GI50) ([6]; GI50 versus methoxy derivative 8g): 4
- GI50 ([6]; Homo sapiens): 89 nM
- IC50 [2]: 92 ± 8 nM
- IC50 [3]: 88 ± 8 nM
- IC50 [4]: 92 ± 8 nM

SMILES: Cc1ccc(-n2c(SCc3cn(-c4ccc(Cl)cc4)nn3)nc3ccccc3c2=O)cc1 [Compound 8f, 2-(((1-(4-Chlorophenyl)-1H-1,2,3-triazol-4-yl)methyl)thio)-3-(p-tolyl)quinazolin-4(3H)-one]
- viability at 4 days, 50 µM [5]: 87%
- IC50 [7]: 89 ± 5 nM
- IC50 [1]: 34 ± 3 nM
- IC50 [8]: 69 ± 5 nM
- GI50 ([6]; Homo sapiens): 37 nM
- IC50 [2]: 39 ± 3 nM
- IC50 [3]: 37 ± 3 nM
- IC50 [4]: 38 ± 3 nM

SMILES: CCn1c(SCc2cn(-c3ccccc3)nn2)nc2ccccc2c1=O [Compound 8m, 2-(((1-Phenyl-1H-1,2,3-triazol-4-yl)methyl)thio)-3-ethyl quinazolin-4(3H)-one]
- viability at 4 days, 50 µM [5]: 90%
- IC50 [1]: 68 ± 6 nM
- GI50 ([6]; Homo sapiens): 72 nM
- IC50 [2]: 74 ± 6 nM
- IC50 [3]: 72 ± 6 nM
- IC50 [4]: 74 ± 6 nM

SMILES: CCn1c(SCc2cn(-c3ccc(OC)cc3)nn2)nc2ccccc2c1=O [Compound 8o, 2-(((1-(4-Methoxyphenyl)-1H-1,2,3-triazol-4-yl)methyl)thio)-3-ethyl quinazolin-4(3H)-one]
- viability at 4 days, 50 µM [5]: 89%
- IC50 [1]: 63 ± 5 nM
- GI50 ([6]; Homo sapiens): 70 nM
- IC50 [2]: 74 ± 6 nM
- IC50 [3]: 69 ± 5 nM
- IC50 [4]: 74 ± 6 nM

SMILES: COc1ccc(-n2cc(CSc3nc4ccccc4c(=O)n3-c3cccc(C)c3)nn2)cc1 [Compound 8k, 2-(((1-(4-Methoxyphenyl)-1H-1,2,3-triazol-4-yl)methyl)thio)-3-(m-tolyl)quinazolin-4(3H)-one]
- viability at 4 days, 50 µM [5]: 85%
- IC50 [1]: 39 ± 3 nM
- GI50 ([6]; Homo sapiens): 43 nM
- IC50 [2]: 45 ± 3 nM
- IC50 [3]: 42 ± 3 nM
- IC50 [4]: 46 ± 3 nM

SMILES: COc1ccc(-n2cc(CSc3nc4ccccc4c(=O)n3-c3ccccc3)nn2)cc1 [Compound 8c, 2-(((1-(4-Methoxyphenyl)-1H-1,2,3-triazol-4-yl)methyl)thio)-3-phenylquinazolin-4(3H)-one]
- viability at 4 days, 50 µM [5]: 86%
- IC50 [1]: 42 ± 3 nM
- GI50 ([6]; Homo sapiens): 47 nM
- IC50 [2]: 49 ± 3 nM
- IC50 [3]: 47 ± 3 nM
- IC50 [4]: 49 ± 3 nM

SMILES: C=CCn1c(SCc2cn(-c3ccccc3)nn2)nc2ccccc2c1=O [Compound 8q, 2-(((1-Phenyl-1H-1,2,3-triazol-4-yl)methyl)thio)-3-allyl quinazolin-4(3H)-one]
- viability at 4 days, 50 µM [5]: 87%
- IC50 [1]: 89 ± 8 nM
- GI50 ([6]; Homo sapiens): 94 nM
- IC50 [2]: 96 ± 8 nM
- IC50 [3]: 93 ± 8 nM
- IC50 [4]: 96 ± 8 nM

SMILES: Cc1ccc(-n2cc(CSc3nc4ccccc4c(=O)n3-c3ccccc3)nn2)cc1 [Compound 8d, 2-(((1-(p-Tolyl)-1H-1,2,3-triazol-4-yl)methyl)thio)-3-phenylquinazolin-4(3H)-one]
- viability at 4 days, 50 µM [5]: 89%
- IC50 [1]: 48 ± 4 nM
- GI50 ([6]; Homo sapiens): 53 nM
- IC50 [2]: 56 ± 4 nM
- IC50 [3]: 53 ± 4 nM
- IC50 [4]: 56 ± 4 nM

SMILES: Cc1cccc(-n2c(SCc3cn(-c4ccccc4)nn3)nc3ccccc3c2=O)c1 [Compound 8i, 2-(((1-Phenyl-1H-1,2,3-triazol-4-yl)methyl)thio)-3-(m-tolyl)quinazolin-4(3H)-one]
- viability at 4 days, 50 µM [5]: 90%
- IC50 [1]: 59 ± 5 nM
- GI50 ([6]; Homo sapiens): 65 nM
- IC50 [2]: 68 ± 6 nM
- IC50 [3]: 65 ± 5 nM
- IC50 [4]: 68 ± 6 nM

SMILES: O=c1c2ccccc2nc(SCc2cn(-c3ccc(Cl)cc3)nn2)n1-c1ccccc1 [Compound 8b, 2-(((1-(4-Chlorophenyl)-1H-1,2,3-triazol-4-yl)methyl)thio)-3-phenyl quinazolin-4(3H)-one]
- viability at 4 days, 50 µM [5]: 90%
- IC50 [1]: 36 ± 3 nM
- GI50 ([6]; Homo sapiens): 41 nM
- IC50 [2]: 44 ± 3 nM
- IC50 [3]: 40 ± 3 nM
- IC50 [4]: 42 ± 3 nM

SMILES: CCn1c(SCc2cn(-c3ccc(C)cc3)nn2)nc2ccccc2c1=O [Compound 8p, 2-(((1-(p-Tolyl)-1H-1,2,3-triazol-4-yl)methyl)thio)-3-ethylquinazolin-4(3H)-one]
- viability at 4 days, 50 µM [5]: 86%
- IC50 [1]: 77 ± 7 nM
- GI50 ([6]; Homo sapiens): 82 nM
- IC50 [2]: 85 ± 7 nM
- IC50 [3]: 82 ± 7 nM
- IC50 [4]: 84 ± 7 nM

SMILES: Cc1cccc(-n2c(SCc3cn(-c4ccc(Cl)cc4)nn3)nc3ccccc3c2=O)c1 [Compound 8j, 2-(((1-(4-Chlorophenyl)-1H-1,2,3-triazol-4-yl)methyl)thio)-3-(m-tolyl)quinazolin-4(3H)-one]
- viability at 4 days, 50 µM [5]: 87%
- IC50 [7]: 78 ± 5 nM
- IC50 [1]: 26 ± 2 nM
- IC50 [8]: 61 ± 5 nM
- GI50 ([6]; Homo sapiens): 33 nM
- GI50 [6]: 29 nM
- IC50 [2]: 30 ± 2 nM
- IC50 [3]: 29 ± 2 nM
- IC50 [4]: 31 ± 2 nM

SMILES: C=CCn1c(SCc2cn(-c3ccc(Cl)cc3)nn2)nc2ccccc2c1=O [Compound 8r, 2-(((1-(4-Chlorophenyl)-1H-1,2,3-triazol-4-yl)methyl)thio)-3-allyl quinazolin-4(3H)-one]
- viability at 4 days, 50 µM [5]: 90%
- IC50 [1]: 75 ± 6 nM
- GI50 ([6]; Homo sapiens): 80 nM
- IC50 [2]: 84 ± 7 nM
- IC50 [3]: 79 ± 6 nM
- IC50 [4]: 81 ± 7 nM

SMILES: C=CCn1c(SCc2cn(-c3ccc(C)cc3)nn2)nc2ccccc2c1=O [Compound 8t, 2-(((1-(p-Tolyl)-1H-1,2,3-triazol-4-yl)methyl)thio)-3-allyl quinazolin-4(3H)-one]
- viability at 4 days, 50 µM [5]: 90%
- IC50 [1]: 80 ± 7 nM
- GI50 ([6]; Homo sapiens): 85 nM
- IC50 [2]: 87 ± 7 nM
- IC50 [3]: 84 ± 7 nM
- IC50 [4]: 87 ± 7 nM
